Results published in PubChem BioAssay (NCI).
Where “and” joins values, the source holds several entries; their conditions need not be identical. Identical values can stand only once.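 The compound was tested at five concentrations on cells cultured in 96-well plates, with a 48-hour exposure period. GI50 = concentration required for 50% inhibition of growth. At the TGI there is no net growth.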

Tests used:
Test in all cases: inhibition of tumour cell growth, NCI panel, 48 h
UACC-62 melanoma = tested on: UACC-62 melanoma
MALME-3M melanoma = tested on: MALME-3M melanoma
RXF 393 renal = tested on: RXF 393 renal
SK-MEL-5 melanoma = tested on: SK-MEL-5 melanoma
SK-MEL-2 melanoma = tested on: SK-MEL-2 melanoma
NCI/ADR-RES ovarian = tested on: NCI/ADR-RES ovarian
OVCAR-3 ovarian = tested on: OVCAR-3 ovarian
SNB-19 CNS = tested on: SNB-19 CNS
NCI-H226 lung = tested on: NCI-H226 lung
M14 melanoma = tested on: M14 melanoma

Structure (SMILES) | TGI (UACC-62 melanoma) [µM] | TGI (MALME-3M melanoma) [µM] | TGI (RXF 393 renal) [µM] | TGI (SK-MEL-5 melanoma) | TGI (SK-MEL-2 melanoma) [µM] | TGI (NCI/ADR-RES ovarian) [µM] | TGI (OVCAR-3 ovarian) [µM] | TGI (SNB-19 CNS) | TGI (NCI-H226 lung) [µM] | TGI (M14 melanoma) | GI50 (UACC-62 melanoma) [µM] | GI50 (MALME-3M melanoma) [µM] | GI50 (RXF 393 renal) [µM] | GI50 (SK-MEL-5 melanoma) [µM] | GI50 (SK-MEL-2 melanoma) [µM] | GI50 (NCI/ADR-RES ovarian) [µM] | GI50 (OVCAR-3 ovarian) [µM] | GI50 (M14 melanoma) [µM] | GI50 (NCI-H226 lung) [µM]
CCC[C@@H]1C(=O)N=C(N)N1C(=O)OCc1ccccc1 | > 100 | > 100 | > 100 | > 100 µM | > 100 | > 100 | > 100 | > 100 µM | > 100 |  |  |  |  |  |  |  |  |  | 
CCCC(=O)[O-].N.N.N.N.N.[Co+3].[O-][Cl+3]([O-])([O-])[O-] | > 100 | > 100 |  | > 100 µM | > 100 |  | > 100 | > 100 µM |  | > 100 µM |  |  |  |  |  |  |  |  | 
C=C(c1ccccc1)c1ccccc1-c1cc(-c2ccccc2)cc(-c2ccccc2)n1 | > 100 | > 100 | > 100 | > 100 µM |  | > 100 | > 100 | > 100 µM | > 100 | > 100 µM |  |  |  |  |  |  |  |  | 
O=c1ccc2nc(-c3ccccn3)nn(-c3ccccc3)c-2c1 | 4.3 | 3.37 | 3.01 | 5.53 µM | 8.68 | 65.3 | 3.17 |  | 11.9 | 13.6 µM | 1.95 | 1.77 | 1.6 | 2.3 | 2.96 | 6.91 | 1.77 | 3.39 | 3.2
CCN1CCC(O)(/C=C/c2ccc(OC)cc2)C(C(=O)/C=C/c2ccc(OC)cc2)C1 (stereo not given) | 26.1 | 32.8 | 11.9 |  |  | 21.9 | 27.6 | 29.9 µM | 29.7 | 34.1 µM |  |  |  |  |  |  |  |  | 
C[N+](C)(CCNC(=O)c1cccc2cc3ccccc3nc12)Cc1ccc([N+](=O)[O-])s1 | > 25 | > 25 | > 25 | > 25 µM | > 25 | > 25 | > 25 |  | > 25 | > 25 µM |  |  |  |  |  |  |  |  | 
CCOC(=O)[C@@H]1ON2OC(OC3CCCC3(c3ccccc3)c3ccccc3)C(OC(C)=O)[C@H]3OC(=O)[C@@H]1C32 (stereo not given in full) | > 100 |  | 84.2 | > 100 µM | > 100 | > 100 | > 100 | > 100 µM | > 100 | > 100 µM |  |  |  |  |  |  |  |  | 
COC(=O)C(NC(=O)c1ccccc1)C(c1ccc(Cl)cc1)P(=O)(OC)OC (stereo not given) | > 100 |  | > 100 | > 100 µM | > 100 |  |  | > 100 µM | > 100 | > 100 µM |  |  |  |  |  |  |  |  | 
C/C=C(/C)C(=O)O[C@H]1[C@H](O)CC(c2ccc3c(c2O)C(O)=C2C(=O)C4(OC)C(O)=C(C(N)=O)C(=O)[C@H](CC(=O)c5ccccc5O)C4CC2[C@@]3(C)OC)O[C@@H]1C (stereo not given in full) | 0.236 | 2.87 |  | 0.0149 µM and 0.0199 µM | 0.0696 |  | 1.9 | 1.68 µM and 1.06 µM | 2.33 | 2.13 µM and 1.34 µM |  |  |  |  |  |  |  |  | 
COC1OC2=CCC3C(=O)NC(=O)C3C2[C@H](OCc2ccccc2)C1OCc1ccccc1 (stereo not given in full) | 6 | 3.26 | 2.99 | 34.1 µM | 16.4 |  | 3.1 |  |  | 3.19 µM |  |  |  |  |  |  |  |  | 
O=C(N/N=C/c1cc(Br)cc(Br)c1[O-])c1ccccc1O.O=C(N/N=C/c1cc(Br)cc(Br)c1[O-])c1ccccc1O.[Ni+2] | 0.661 | 1.98 | 2.62 | 1.44 µM | 1.3 |  | 0.52 | 3.67 µM | 1.56 | 1.47 µM |  |  |  |  |  |  |  |  | 
